We go through 13 compounds from US20110287953A1, “METHOD FOR DISCOVERING POTENTIAL DRUGS” (priority 2010, published 2011).

The test system of series [1] is hepatocellular carcinoma or HCC. Particulars: Table 2-3; labels (2) and (3), PubMed references; cited from earlier work.
Series [2] has as its system HCC cell lines, Mahlavu, PLC5, HepG2, and Huh7. Put plainly: MTT cell viability test in HCC cell lines. As for the experimental part: (§1) The HCC cell lines, Mahlavu, PLC5, HepG2, and Huh7, were cultured in Dulbecco's Modified Eagle Medium (DMEM; Seromed, Berlin, Germany) supplemented with 10% heat-inactivated fetal bovine serum, 100 μg/ml streptomycin, 100 μg/ml penicillin, and 2 mM L-glutamine in a humidified atmosphere containing 5% CO2 at 37° C. […] The cells were exposed to different concentrations of the small molecules for 72 hours. Control cells were incubated in the absence of small molecules. Afterwards, the cells were incubated with medium containing MTT for 2 hours. […] For the clonogenic assay, Huh7 cells were seeded out in appropriate dilutions in a 6-well plate and treated with selected small molecules at various concentrations for 15 days. Colonies were fixed with glutaraldehyde (6.0% v/v), stained with crystal violet (0.5% w/v), and counted.

A further series deals with Huh7 cells. Put plainly: Clonogenic assay. As to conditions: for inhibition at 10 µM: Homo sapiens, Huh-7, 360 h; for inhibition at 10 µM / Clonogenic assay: colony number at 10 μM. Type of series: cell-based.
The test system of the next series is HCC cell lines. Put plainly: Drug efficacy label of top 10 CMap drugs (MTT or clonogenic).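 Also: label 1 means effective by MTT or clonogenic assay and 4 means ineffective.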 Type of series: cell-based. As to conditions: Table 2-3; labels (1) and (4); gene set in which the drug ranked top 10. As for the experimental part:
as §1

The subject of a further series is Huh-7 cells. As to conditions: proliferation of Huh-7 cells, other reports; cited from earlier work.
Series [3] has as its system NPC cell lines, TW01, TW03, TW04, BM1.
Experimental: NPC cell lines, TW01, TW03, and TW04 provided by Dr. C T Lin (National Taiwan University, Taiwan), were derived from primary nasopharyngeal tumors of Chinese patients with de novo NPC and had been tested and authenticated (27). NPC cell line BM1, provided by Dr. S K Liao (Chang Gung University, Taiwan), was derived from bone metastatic lesions of an NPC patient (28). NPC cell lines were maintained in DMEM with 10% FBS containing penicillin (100 U/mL) and streptomycin (100 μg/mL) in 5% CO2 at 37° C. Cell viability was determined using the XTT cell viability assay kit (Sigma-Aldrich, St. Louis, USA), according to the manufacturer's instructions. […] Cells were exposed with or without small molecules for 72 hours at different concentrations. Then, the cells were incubated with medium containing XTT in an amount equal to 20% of the culture medium volume for 2 hours. Optical density was measured using a microplate reader (Spectral Max250) at 450 nm.
A further series relates to B16 melanoma cells. Particulars: cited from earlier work.
The subject of another series is leukemic cells. Particulars: cited from earlier work.
[4] abbreviates: 72 h, Table 2-2, HCC cell lines, MTT.
The mark [5] stands for this setting: 72 h, Table 3-1, HCC cell lines, MTT.
Setting [6] is: Table 3-1, HCC cell lines, 72 hours, MTT.

Molecules are shown by their SMILES. Some results are limits rather than exact numbers.

Experimental for Huh7 cells: The HCC cell lines, Mahlavu, PLC5, HepG2, and Huh7, were cultured in Dulbecco's Modified Eagle Medium (DMEM; Seromed, Berlin, Germany) supplemented with 10% heat-inactivated fetal bovine serum, 100 μg/ml streptomycin, 100 μg/ml penicillin, and 2 mM L-glutamine in a humidified atmosphere containing 5% CO2 at 37° C. The viability of the exposed cells was determined using the MTT cell viability assay kit (Sigma-Aldrich, St. Louis, USA), according to the manufacturer's instructions. […] The cells were exposed to different concentrations of the small molecules for 72 hours. Control cells were incubated in the absence of small molecules. Afterwards, the cells were incubated with medium containing MTT for 2 hours. The optical density at 450 nm was measured using a microplate reader (Spectral Max250). For the clonogenic assay, Huh7 cells were seeded out in appropriate dilutions in a 6-well plate and treated with selected small molecules at various concentrations for 15 days. Colonies were fixed with glutaraldehyde (6.0% v/v), stained with crystal violet (0.5% w/v), and counted.

For `Nc1ccccc1NC(=O)c1ccc(CNC(=O)OCc2cccnc2)cc1` [MS-275], the drug efficacy label entry in series [1] is listed as “MS-275 (2)”.

The IC50 is the point on the concentration scale where inhibition reaches its midpoint. The inhibition is the percentage by which the read-out fell short of the control. The low end stands for a response near the control, the high end for a response far below the control. Consider `O=c1cc(-c2ccc(O)cc2)oc2cc(O)cc(O)c12` [apigenin], for which the IC50 in series [2] (setting [4]) and in series [2] (setting [5]) was greater than 10 µM in each case. Moreover, the “growth / survival of Huh7 cells” value in the series on Huh7 cells is listed as “inhibited the growth of Huh7 cells”. For the same compound, the inhibition at 10 µM in the series on Huh7 cells (Table 3-1, 15 days) was greater than 50%. The “Clonogenic assay” value in the series with Huh7 cells (Table 2-2, 15 days) is “Effective (Effectiveness in clonogenic assay is defined as reducing more than 50% colony number at 10 μM)”. The drug efficacy label result in the series with HCC cell lines is “apigenin (1)”.

With `CN(C)CCCN1c2ccccc2Sc2ccc(Cl)cc21` [chlorpromazine], the IC50 is greater than 10 µM in series [2] (setting [4]) and 5 to 10 µM in series [2] (setting [5]). For the same compound, the inhibition at 10 µM in the series on Huh7 cells (Table 3-1, 15 days) is greater than 50%. The “Clonogenic assay” value in the series on Huh7 cells (Table 2-2, 15 days) is “Effective (Effectiveness in clonogenic assay is defined as reducing more than 50% colony number at 10 μM)”. For the same compound, the drug efficacy label result in the series with HCC cell lines is “chlorpromazine (1)”.

In series [2] (setting [5]), `Clc1ccc(C(OCCN2CCCCC2)c2ccccc2)cc1` (centres unmarked) [cloperastine] yielded an IC50 greater than 10 µM. In the series on Huh7 cells (Table 3-1, 15 days), the inhibition at 10 µM was greater than 50%. In addition, in the series with HCC cell lines, the drug efficacy label entry is recorded as “cloperastine (4)”.

In series [2] (setting [5]), `CC[C@H](c1ccc(O)cc1)[C@@H](CC)c1ccc(O)cc1` [hexestrol] gave an IC50 greater than 10 µM. Moreover, the Clonogenic assay result in the series on Huh7 cells (Table 3-1, 15 days) was “Ineffective”. The drug efficacy label result with HCC cell lines was “hexestrol (4)”.

In the case of `CC(C(O)c1ccc(O)cc1)N1CCC(Cc2ccccc2)CC1` (centres unmarked) [ifenprodil], the IC50 in series [2] (setting [5]) was greater than 10 µM. Further, in series [1], the drug efficacy label result was “ifenprodil (3)”.

`O=c1cc(-c2ccc(O)c(O)c2)oc2cc(O)cc(O)c12` [luteolin]: the IC50 in series [2] (setting [4]) was greater than 10 µM; in series [2] (setting [5]) it was greater than 10 µM; in the series on Huh-7 cells it was roughly 50 µM. This compound also had an inhibition at 10 µM in the series on Huh7 cells (Table 3-1, 15 days) greater than 50%. Moreover, the “Clonogenic assay” value with Huh7 cells (Table 2-2, 15 days) was “Ineffective”. Moreover, the drug efficacy label entry with HCC cell lines is “luteolin (4)”.

Compound `CC[C@@H](CO)NC(=O)[C@@H]1C=C2c3cccc4[nH]cc(c34)C[C@H]2N(C)C1` [methylergometrine] yielded an IC50 in series [2] (72 h) greater than 10 µM. Further, in the series on Huh7 cells (Table 3-1, 15 days), the Clonogenic assay entry is “Ineffective”. In the series with HCC cell lines, the drug efficacy label entry is recorded as “methylergometrine (4)”.

As for `CC(COc1ccccc1)N(CCCl)Cc1ccccc1` (centres unmarked) [phenoxybenzamine], the 50% inhibitory concentration (IC50) in series [2] (72 h) and in series [2] (setting [6]) was greater than 10 µM throughout. The “growth / survival of Huh7 cells” value with Huh7 cells is given as “could inhibit the survival of Huh7 cells”. In the series on Huh7 cells (Table 3-1, 15 days), the inhibition at 10 µM was greater than 50%. Besides, in the series on Huh7 cells (Table 2-2, 15 days), the “Clonogenic assay” value is given as “Effective (Effectiveness in clonogenic assay is defined as reducing more than 50% colony number at 10 μM)”. Further, the drug efficacy label result in the series with HCC cell lines was “(1) and phenoxybenzamine (1)”.

As for `Cc1cc(/C=C/c2ccc3cc(N(C)C)ccc3[n+]2C)c(C)n1-c1ccccc1` [pyrvinium], the IC50 in series [2] (setting [5]) was 0.1 to 1 µM. Moreover, the drug efficacy label entry in series [1] was “pyrvinium (3)”.

Take `CC(/C=C/C(=O)NO)=C\[C@@H](C)C(=O)c1ccc(N(C)C)cc1` [trichostatin A]: the IC50 lay in the range of 0.1 to 1 µM in series [2] (Table 2-2, HCC cell lines, 72 hours, MTT) and 0.1 to 1 µM in series [2] (setting [6]). For the same compound, the drug efficacy label entry in the series with HCC cell lines is “trichostatin A (1)”. The “cytotoxicity in NPC cell lines” value in series [3] is listed as “Dose-dependent cytotoxicity”.

In the case of `CN1CCN(CCCN2c3ccccc3Sc3ccc(C(F)(F)F)cc32)CC1` [trifluoperazine], the IC50 in series [2] (setting [4]) and in series [2] (setting [5]) was greater than 10 µM throughout. In the series on Huh7 cells (Table 3-1, 15 days), this compound returned an inhibition at 10 µM greater than 50%. Also, the “Clonogenic assay” value in the series with Huh7 cells (Table 2-2, 15 days) is “Effective (Effectiveness in clonogenic assay is defined as reducing more than 50% colony number at 10 μM)”. Besides, in the series on HCC cell lines, the drug efficacy label result is “trifluoperazine (1)”. In addition, in series [3], the “cytotoxicity in NPC cell lines” value is “Dose-dependent cytotoxicity”. Further, the “apoptosis” value with B16 melanoma cells and with leukemic cells was “can induce apoptosis” each time.

Turning to `O=C(CCCCCCC(=O)Nc1ccccc1)NO` [vorinostat], the drug efficacy label entry in series [1] is “vorinostat (2)”.
